US11524021B2, “Use of ginsenoside M1 for manufacturing medicament for treating oral cancer” (priority 2018, dated 2022)

How the values were obtained:
[1] = test system: human oral cancer cells OECM-1; assay: Colony formation of OECM-1 cells; format: cell-based; conditions: 5˜20 μg/ml, 10 days
Experimental: FIGS. 4A-4B show ginsenoside M1 reduced the colony formation ability of human oral cancer cells. Human oral cancer cell line SAS cells (FIG. 4A) or OECM-1 cells (FIG. 4B) were incubated for 10 days with ginsenoside M1 (5˜20 μg/ml) or vehicle (0.1% DMSO). The cells were fixed in 4% ice-cold paraformaldehyde and stained with 0.1% crystal violet, and the colonies were counted. The data were expressed as mean±SD; n=4. * and *** indicate a significant difference at the level of p<0.05 and p<0.001, respectively, compared to vehicle-control cells. (One-way ANOVA with Dunnett's multiple comparisons test).
Plate 150 human oral cancer cells SAS or OECM-1 per 6-cm dish in 3 ml of culture medium and were grown overnight at 37° C. in a 5% CO2 incubator. The cells were incubated for 10 days with ginsenoside M1 (5˜20 μg/ml) or vehicle. The cells were changed for fresh medium containing the same concentration of ginsenoside M1 at day 5. The cells were fixed in 4% ice-cold paraformaldehyde for 15 min at […], and stained with 0.1% crystal violet 10 min at room temperature. […] The data were expressed as mean±SD; n=4. * and *** indicate a significant difference at the level of p<0.05 and p<0.001, respectively, compared to vehicle-control cells. (One-way ANOVA with Dunnett's multiple comparisons test).

[2] = Body weight of SAS xenograft mice; format: in vivo, BALB/c nude (nu/nu) mice; conditions: 5 successive days
Experimental: FIGS. 6A-6C show oral administration of ginsenoside M1 reduced human oral cancer growth in mice. Human oral cancer cell line SAS cells Xenografts mice with tumor size around 40˜60 mm^3 were given a daily oral administration of either ginsenoside M1 (30-90 mg/kg) or vehicle for 5 successive days. (FIG. 6A) The tumor volume was determined by measurement of the length (L) and width (W) of the tumor and calculated as tumor volume (mm3)=(L×W^2)/2. (FIG. 6B) The tumor weight was measured after the mice were scarified. (FIG. 6C) The body weight of mice was recorded. The data were expressed as mean±SD; n=6. ** and *** indicate a significant difference at the level of p<0.01 and p<0.001, respectively, compared to vehicle-control mice. […]
FIGS. 7A-7C show subcutaneous (SC) injection of ginsenoside M1 reduced human oral cancer growth in mice. […] (FIG. 7A) The tumor volume was determined by measurement of the length (L) and width (W) of the tumor and calculated as tumor volume (mm3)=(L×W^2)/2. (FIG. 7B) The tumor weight was measured after the mice were scarified. (FIG. 7C) The body weight of mice was recorded. The data were expressed as mean±SD; n=6. ** indicates a significant difference at the level of p<0.01, compared to vehicle-control mice. […]
To evaluate the anti-cancer activity of ginsenoside M1 in vivo, human oral cancer xenografts were used. […] The TV on day n (TVn) was calculated as TV (mm3)=(L×W^2)/2. […]

[3] = test system: human oral cancer SAS cells; assay: Migration of SAS cells, wound healing assay; format: cell-based; conditions: 24 h
Experimental: FIGS. 5A-5B show ginsenoside M1 reduced the migration ability of human oral cancer cells. Human oral cancer cell line SAS cells (FIG. 5A) or OECM-1 cells (FIG. 5B) were cultured in 6-cm dish until the cells reached 100% confluence forming a monolayer. A clear zone was created by scratching using a sterile 200-μl pipette tip. The cells were incubated for 24 h (SAS cells) or 18 h (OECM-1 cells) with ginsenoside M1 (5˜10 μg/ml) or (0.1% DMSO). The migration distance was measured and compared to the vehicle-control cells. The data were expressed as mean±SD; n=3. *** indicates a significant difference at the level of p<0.001, compared to vehicle-control cells. (One-way ANOVA with Dunnett's multiple comparisons test).
The cell migration ability was measured by wound healing assay. Plate 5×10^6 human oral cancer SAS cells or OECM-1 cells per 6-cm dish in 2 ml of culture medium and were grown overnight at 37° C. in a 5% CO2 incubator until the cells reached 100% confluence forming a monolayer. We used a sterile 200-μl pipette tip to create a scratched clear zone on the culture dish, and the wounds photographed by a phase contrast microscope as the baseline. […] The data were expressed as mean±SD; n=3. *** indicates a significant difference at the level of p<0.001, compared to vehicle-control cells. […]

CC(C)=CCC[C@](C)(O[C@@H]1OC(CO)[C@@H](O)[C@@H](O)C1O)[C@H]1CC[C@]2(C)C1[C@H](O)CC1[C@@]3(C)CC[C@H](O)C(C)(C)C3CC[C@]12C (stereo partly drawn) [ginsenoside M1, 20-O-β-D-glucopyranosyl-20(S)-protopanaxadiol]
colony formation ability of OECM-1 cells [1]: dose-dependently inhibited | body weight of mice ([2]; SC injection 20 mg/kg daily): did not significantly affect | body weight of mice ([2]; oral 30-90 mg/kg daily): did not significantly affect | migration ability of SAS cells ([3]; 5 μg/ml): significantly inhibited | migration ability of SAS cells ([3]; 10 μg/ml): significantly inhibited
